# According to publication PMC10321576, “Cyclic peptides target the aromatic cage of a PHD-finger reader domain to modulate epigenetic protein function” (Chemical Science, 2023):
# Like-named read-outs stand apart in the source and are kept apart here. Peptide text beside a SMILES is read from it.
# Columns and labels:
# KDM7A Dual (PHD+JmjC) = KDM7A Dual (PHD+JmjC) (Homo sapiens, UniProt Q6ZMT4); assay: BLI binding; details: 1:1 binding model
# Excerpt: (§1) Figure S2. BLI for KDM7 proteins with cyclic peptides.
# (§2) BLI traces for b inding to KDM7 protein domains immobilised by C-terminal His -tag on Ni -NTA
# (§3) biosensors, against cyclic peptides. Response trace for each peptide concentration is represented by
# (§4) a different colour, with the fitted curves overlaid in black.
# (§5) concentration plotted, with 2-fold dilutions thereafter. Dual domain = PHD+JmjC. […]
# (§6) against KDM7 and other protein domains. t1/2 = half life (0.693 / Koff)
# (§7) (1 picture or pasted object on this page, not shown here)
# KDM7A PHD [1] = target: T1, KDM7A PHD (Homo sapiens, UniProt Q6ZMT4); assay: BLI binding; details: 1:1 binding model
# T1 construct: KDM7A 38-98; made in house
# T1 sequence (Q6ZMT4 38-98): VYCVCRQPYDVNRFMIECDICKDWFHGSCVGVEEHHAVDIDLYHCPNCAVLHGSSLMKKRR
# Excerpt: as §1, §2, §3, §4, §5, §6, §7
# KDM7C Dual (PHD+JmjC) = KDM7C Dual (PHD+JmjC) (Homo sapiens, UniProt O75151); assay: BLI binding; details: 1:1 binding model
# Excerpt: as §1, §2, §3, §4, §5, §6, §7
# KDM7C PHD [2] = target: T2, KDM7C PHD (Homo sapiens, UniProt O75151); assay: BLI binding; details: 1:1 binding model
# T2 construct: KDM7C 1-67; made in house
# T2 sequence (O75151 1-67): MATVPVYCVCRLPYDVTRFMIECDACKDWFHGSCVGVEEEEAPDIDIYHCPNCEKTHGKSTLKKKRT
# Excerpt: as §1, §2, §3, §4, §5, §6, §7
# DIDO PHD = target: T3, DIDO PHD (Homo sapiens, UniProt Q9BTC0); assay: BLI binding; details: 1:1 binding model
# T3 construct: DIDO PHD
# T3 sequence (Q9BTC0 268-322 limits assumed): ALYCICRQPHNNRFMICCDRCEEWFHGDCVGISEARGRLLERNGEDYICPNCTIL
# Excerpt: as §6, §7
# ING2 PHD = target: T4, ING2 PHD (Homo sapiens, UniProt Q9H160); assay: BLI binding; details: 1:1 binding model
# T4 construct: ING2 PHD
# Excerpt: as §6, §7
# SPIN1 TTD = SPIN1 TTD (Homo sapiens, UniProt Q9Y657); assay: BLI binding; details: 1:1 binding model
# Excerpt: as §6, §7
# TAF3 PHD = target: T5, TAF3 PHD (Homo sapiens, UniProt Q5VWG9); assay: BLI binding; details: 1:1 binding model
# T5 construct: TAF3 PHD
# Excerpt: as §6, §7
# HisTrx-KDM7B PHD = target: T6, HisTrx-KDM7B PHD (Homo sapiens, UniProt Q9UPP1); assay: ITC binding
# T6 construct: KDM7B 1-66; made in house
# T6 sequence (Q9UPP1 1-66 isoform Q9UPP1-2): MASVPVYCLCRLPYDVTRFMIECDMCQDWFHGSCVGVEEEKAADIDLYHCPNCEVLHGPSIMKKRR
# Protocol: Figure S8. ITC titration curves for His-Trx-KDM7B PHD.
# Top panels are raw heat of injection, bottom panels are normalised data fitted to 1:1 binding model.
# His-Trx = His6+thioredoxin. For […]
# results of fit and conditions see Figure S10. […]
# Figure S10. ITC results: Tabulated values from 1:1 binding model and conditions ITC buffer = 50 mM HEPES, 100 mM NaCl, pH 7.4, 0.2 µm filtered), at 25 °C. Dual = PHD+JmjC. HisTrx = His 6+thioredoxin tag, GST = glutathione S -transferase tag, ZB = Z -basic tag. Syringe contained peptide solution in buffer. Cell contained protein solution in buffer.
# as §7
# KDM7A PHD [3] = target: T1, KDM7A PHD; assay: AlphaScreen displacement of H3 1-21K4me3-Bt; assay type: binding; details: average of two independent experiments
# Excerpt: (§8) The functional effect of OC9 on the PHD-finger was further assessed using an AlphaScreen (AS) based proximity assay. […]
# KDM7A PHD+JmjC = KDM7A PHD+JmjC (Homo sapiens, UniProt Q6ZMT4); assay: AlphaScreen displacement of H3 1-21K4me3-Bt; assay type: binding; details: average of two independent experiments
# Excerpt: as §8
# KDM7B PHD = target: T7, KDM7B PHD (Homo sapiens, UniProt Q9UPP1); assay: AlphaScreen displacement of H3 1-21K4me3-Bt; assay type: binding; details: average of at least two independent experiments; read-out: AlphaScreen displacement IC50, KDM7B PHD
# T7 construct: KDM7B 1-66; made in house
# T7 sequence (Q9UPP1 1-66 isoform Q9UPP1-2): T6 sequence (Q9UPP1 1-66 isoform Q9UPP1-2)
# Excerpt: as §8
# KDM7B PHD+JmjC = target: T8, KDM7B PHD+JmjC (Homo sapiens, UniProt Q9UPP1); assay: AlphaScreen displacement of H3 1-21K4me3-Bt; assay type: binding; details: average of two independent experiments
# T8 construct: dual domain (PHD-JmjC) of KDM7B; made in house
# Excerpt: as §8
# KDM7C PHD [4] = target: T2, KDM7C PHD; assay: AlphaScreen displacement of H3 1-21K4me3-Bt; assay type: binding; details: average of two independent experiments
# Excerpt: as §8
# KDM7B dual domain = target: T9, KDM7B dual domain (Homo sapiens, UniProt Q9UPP1); assay: AlphaScreen demethylation assay; assay type: biochemical
# T9 construct: dual domain (PHD-JmjC) of KDM7B; His-tag (C); made in house
# Excerpt: We tested the effect of OC9 on KDM7B demethylation of H3_1–21K4me3K9me2 and the less-efficient H3_1–21K9me2 substrate by MALDI-TOF MS based assay.[14,19] […] Inhibition by OC9 was further confirmed by an orthogonal AS activity assay[58] (Fig. S41 ^†). […] As KDM7B aromatic cage mutation results in the same phenotypic outcome as JmjC catalytic site inactivation (e.g. KDM7B demethylase-dependent melanoma metastasis[20]), our results emphasise the crucial role of PHD-fingers in regulating KDM7 demethylase activity and the need to explore PHD-finger viability as therapeutic targets.
# [5] = test system: SUP-T1 nuclear lysate proteins; assay: Pull-down and proteomics from SUP-T1 nuclear lysate; assay type: binding; details: 1 μM OC9-Bt, 454 proteins identified
# Protocol: Fig. 6 Selective capture of full-length KDM7 with OC9-Bt in nuclear lysates. (a) OC9-Bt, H3K4me3-Bt and Bt were used as affinity probes in HEK293T nuclear lysates, transiently transfected with wild type KDM7B, or PHD-finger mutant (Y14A, W29A). Capture was performed with 1 μM probe incubated in pre-cleared lysate, recovered with streptavidin-conjugated magnetic beads, then washed and eluted by heating in denaturing solution. 100-fold excess OC9 or OC9 V10A were used as competitors. […] (Left) Change in all protein (454) recoveries with competition by titration of unlabelled OC9. (Right) Volcano plot comparing relative abundance of pull-down content at 0 and 20 μM competition. The upper left quadrant indicates >5-fold difference in recovered protein (based on T-test difference of mean log 2 (LFQ) values) and p-value threshold <0.05.
# A further chemoproteomic profiling analysis of endogenous protein capture by OC9-Bt from KDM7B-expressing T-cell lymphoblastic lymphoma SUP-T1 nuclear lysates[67] identified 454 proteins.
# [6] = His-tagged protein on Ni-NTA biosensors
# KDM7C Dual (PHD+JmjC), sequence (O75151 1-353 limits assumed): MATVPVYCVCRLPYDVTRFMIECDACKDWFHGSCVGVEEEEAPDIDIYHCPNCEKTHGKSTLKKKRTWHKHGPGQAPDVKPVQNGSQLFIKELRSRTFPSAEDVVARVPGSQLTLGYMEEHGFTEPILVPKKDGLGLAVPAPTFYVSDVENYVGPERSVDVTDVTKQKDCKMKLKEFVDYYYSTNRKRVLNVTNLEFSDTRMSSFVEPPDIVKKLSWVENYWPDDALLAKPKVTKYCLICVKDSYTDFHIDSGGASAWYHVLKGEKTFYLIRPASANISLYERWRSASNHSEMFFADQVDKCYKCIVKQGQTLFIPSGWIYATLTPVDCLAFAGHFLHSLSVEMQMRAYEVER
# KDM7A Dual (PHD+JmjC), sequence (Q6ZMT4 38-386 limits assumed): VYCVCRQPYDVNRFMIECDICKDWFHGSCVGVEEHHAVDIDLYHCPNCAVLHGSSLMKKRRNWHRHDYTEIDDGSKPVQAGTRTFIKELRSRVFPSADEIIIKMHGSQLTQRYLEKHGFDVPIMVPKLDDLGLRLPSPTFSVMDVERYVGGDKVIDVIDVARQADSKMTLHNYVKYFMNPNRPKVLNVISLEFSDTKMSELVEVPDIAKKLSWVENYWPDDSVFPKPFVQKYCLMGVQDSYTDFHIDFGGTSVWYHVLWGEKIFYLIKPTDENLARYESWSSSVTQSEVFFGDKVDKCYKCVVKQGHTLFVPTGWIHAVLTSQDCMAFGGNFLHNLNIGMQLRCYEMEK
# T5 sequence (Q5VWG9 865-915 limits assumed): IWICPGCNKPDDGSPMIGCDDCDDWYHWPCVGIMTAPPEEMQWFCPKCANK
# SPIN1 TTD, sequence (Q9Y657 53-262 limits assumed): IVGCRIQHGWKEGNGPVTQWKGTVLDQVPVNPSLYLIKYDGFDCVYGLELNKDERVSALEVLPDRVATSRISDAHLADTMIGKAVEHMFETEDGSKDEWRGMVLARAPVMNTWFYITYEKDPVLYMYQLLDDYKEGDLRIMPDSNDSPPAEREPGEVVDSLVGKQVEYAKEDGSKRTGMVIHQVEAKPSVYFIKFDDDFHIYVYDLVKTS
# T4 sequence (Q9H160 212-261 limits assumed): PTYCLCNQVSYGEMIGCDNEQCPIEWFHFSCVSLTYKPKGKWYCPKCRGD
# KDM7A PHD+JmjC, sequence (Q6ZMT4 38-386 limits assumed): as the sequence (Q6ZMT4 38-386 limits assumed) above
# T8 sequence (Q9UPP1 37-483 limits assumed): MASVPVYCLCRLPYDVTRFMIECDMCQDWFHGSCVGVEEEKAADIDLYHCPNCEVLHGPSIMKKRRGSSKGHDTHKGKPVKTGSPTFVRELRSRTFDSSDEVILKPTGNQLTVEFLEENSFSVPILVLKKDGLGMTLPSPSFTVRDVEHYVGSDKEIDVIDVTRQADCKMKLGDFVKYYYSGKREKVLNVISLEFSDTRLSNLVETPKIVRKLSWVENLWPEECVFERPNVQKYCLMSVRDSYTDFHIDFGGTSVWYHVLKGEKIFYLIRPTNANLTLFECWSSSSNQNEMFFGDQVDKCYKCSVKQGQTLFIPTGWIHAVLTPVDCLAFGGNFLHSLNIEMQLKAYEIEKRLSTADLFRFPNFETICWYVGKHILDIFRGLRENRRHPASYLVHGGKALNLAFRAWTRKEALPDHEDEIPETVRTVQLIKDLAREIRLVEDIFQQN
# T9 sequence (Q9UPP1 37-483 limits assumed): as above
compound,measurement,setting,value
"CC(C)C[C@@H]1NC(=O)[C@H](Cc2ccc(O)cc2)NC(=O)[C@H](Cc2ccc(O)cc2)NC(=O)CSC[C@@H](C(N)=O)NC(=O)[C@H]([C@@H](C)O)NC(=O)[C@H](CCCNC(=N)N)NC(=O)[C@H](Cc2ccccc2)NC(=O)[C@H](C(C)C)NC(=O)[C@H](CO)NC(=O)[C@@H]2CCCN2C(=O)[C@H](Cc2ccc(O)cc2)NC(=O)[C@@H]2CCCN2C(=O)[C@H](Cc2c[nH]cn2)NC(=O)[C@H]([C@@H](C)O)NC1=O [OC9] (HELM PEPTIDE1{[O=C(C[*:3])[*:2]].Y.Y.L.T.H.P.Y.P.S.V.F.R.T.C.[am]}$PEPTIDE1,PEPTIDE1,1:R3-15:R3$$$V2.0)",koff,KDM7A Dual (PHD+JmjC),0.0123 ± 0.0001 s⁻¹
same,kon,KDM7A Dual (PHD+JmjC),289000 ± 3000 M⁻¹ s⁻¹
same,Kd,KDM7A Dual (PHD+JmjC); [6],42.5 nM
same,koff,KDM7A PHD [1],0.00679 ± 2e-05 s⁻¹
same,kon,KDM7A PHD [1],358000 ± 3000 M⁻¹ s⁻¹
same,Kd,KDM7A PHD [1]; [6],19 nM
same,koff,KDM7C Dual (PHD+JmjC),0.000137 ± 1e-06 s⁻¹
same,kon,KDM7C Dual (PHD+JmjC),409000 ± 2000 M⁻¹ s⁻¹
same,Kd,"KDM7C Dual (PHD+JmjC); read-out: BLI pKD, KDM7C Dual (converted)",0.316 nM
same,koff,KDM7C PHD [2],0.000483 ± 2e-06 s⁻¹
same,kon,KDM7C PHD [2],463000 ± 2000 M⁻¹ s⁻¹
same,Kd,KDM7C PHD [2]; [6],1.05 nM
same,"BLI KD, DIDO PHD",DIDO PHD,no measurable affinity
same,Kd,DIDO PHD,> 1000 nM
same,Kd,ING2 PHD,> 1000 nM
same,Kd,SPIN1 TTD,> 1000 nM
same,Kd,TAF3 PHD,> 1000 nM
same,Kd,"HisTrx-KDM7B PHD; 50 mM HEPES, 100 mM NaCl, pH 7.4, 25 °C, 1:1 binding model, His6+thioredoxin tag, read-out: ITC KD, HisTrx-KDM7B PHD",8.27 nM
same,"ITC ΔH, HisTrx-KDM7B PHD",HisTrx-KDM7B PHD; 25 °C,-60.0 ± 1.3 kJ mol -1
same,Kd,"HisTrx-KDM7B PHD; read-out: ITC pKD, HisTrx-KDM7B PHD (converted)",7.94 nM
same,"ITC N, HisTrx-KDM7B PHD",HisTrx-KDM7B PHD; stoichiometry,0.86 ± 0.01
same,IC50,KDM7A PHD [3],62 nM
same,IC50,KDM7A PHD+JmjC,132 nM
same,IC50,KDM7B PHD,32 nM
same,IC50,KDM7B PHD+JmjC,95 nM
same,IC50,KDM7C PHD [4],26 nM
same,inhibition of KDM7B demethylase in orthogonal AS activity assay,KDM7B dual domain,Inhibition
same,proteins competed from OC9-Bt pull-down by titration of unlabelled OC9,[5],Only the relative abundance of KDM7B and KDM7C were significantly affected
